Data taken from the supplement of paper PMC13380429.

Key:
Conditions in all cases: 72 h
[1] = system: HepG2; assay: relative viability EC50 (midpoint between 100% and the lowest measured viability); higher = less toxic
[2] = system: Caco-2; assay: as above
[3] = system: Calu-3; assay: as above
[4] = system: Vero E6; assay: as above
[5] = system: U2OS; assay: as above
[6] = system: HepG2; assay: drug sensitivity score (DSS) for viability; higher = more toxic; extreme values may be limits of the assay
[7] = system: Caco-2; assay: as above
[8] = system: Calu-3; assay: as above
[9] = system: Vero E6; assay: as above
[10] = system: U2OS; assay: as above
[11] = system: HepG2; assay: cell viability relative to DMSO; higher = less toxic
[12] = system: Caco-2; assay: as above
[13] = system: Calu-3; assay: as above
[14] = system: Vero E6; assay: as above
[15] = system: U2OS; assay: as above

Structure (SMILES) | relative viability EC50 [1] [µM] | relative viability EC50 [2] [µM] | relative viability EC50 [3] [µM] | relative viability EC50 [4] [µM] | relative viability EC50 [5] [µM] | drug sensitivity score [6] | drug sensitivity score [7] | drug sensitivity score [8] | drug sensitivity score [9] | drug sensitivity score [10] | cell viability ([11]; 1 nM) [%] | cell viability ([11]; 10 nM) [%] | cell viability ([11]; 100 nM) [%] | cell viability ([11]; 1000 nM) [%] | cell viability ([11]; 10000 nM) [%] | cell viability ([12]; 1 nM) [%] | cell viability ([12]; 10 nM) [%] | cell viability ([12]; 100 nM) [%] | cell viability ([12]; 1000 nM) [%] | cell viability ([12]; 10000 nM) [%] | cell viability ([13]; 1 nM) [%] | cell viability ([13]; 10 nM) [%] | cell viability ([13]; 100 nM) [%] | cell viability ([13]; 1000 nM) [%] | cell viability ([13]; 10000 nM) [%] | cell viability ([14]; 1 nM) [%] | cell viability ([14]; 10 nM) [%] | cell viability ([14]; 100 nM) [%] | cell viability ([14]; 1000 nM) [%] | cell viability ([14]; 10000 nM) [%] | cell viability ([15]; 1 nM) [%] | cell viability ([15]; 10 nM) [%] | cell viability ([15]; 100 nM) [%] | cell viability ([15]; 1000 nM) [%] | cell viability ([15]; 10000 nM) [%]
CC(=O)NCCC(=O)N[C@@H](Cc1c[nH]cn1)C(=O)O [N-acetylcarnosine] | > 10 | > 10 | > 10 | > 10 | > 10 | 0 | 0 | 0 | 0 | 0 | 98.8 | 88.3 | 93.3 | 96.2 | 87.9 | 97.3 | 105 | 88.7 | 86.5 | 112 | 106 | 99.2 | 94.5 | 101 | 96.3 | 112 | 92.1 | 102 | 108 | 98.4 | 98 | 101 | 101 | 97.5 | 94.7
O=C(O)c1cc([N+](=O)[O-])ccc1NCCCc1ccccc1 [NPPB] | > 10 | > 10 | > 10 | > 10 | > 10 | 0 | 0 | 0 | 0 | 0 | 91.7 | 101 | 97.5 | 102 | 99.9 | 102 | 87.7 | 93.5 | 95.5 | 94.5 | 99.7 | 105 | 101 | 114 | 96.2 | 94.9 | 98.3 | 90.5 | 94 | 105 | 101 | 98.3 | 100 | 96.4 | 94.8
N#Cc1ccc(NCCNCC(=O)N2CCC[C@H]2C#N)nc1 [NVP-DPP728] | > 10 | > 10 | > 10 | > 10 | > 10 | 0 | 0 | 0 | 0 | 0 | 112 | 98.6 | 102 | 97.3 | 106 | 96.6 | 100 | 97.1 | 106 | 104 | 101 | 92.1 | 96.5 | 104 | 110 | 97.5 | 97.8 | 90.3 | 91.6 | 104 | 96.2 | 98.3 | 101 | 102 | 99.4
CCCCCCCCCCCCCCCC(=O)C(F)(F)F [PACOCF3] | > 10 | > 10 | > 10 | > 10 | > 10 | 0 | 0 | 0 | 0 | 0 | 99.6 | 108 | 102 | 104 | 105 | 101 | 98.6 | 104 | 92.3 | 96.8 | 99.6 | 93.5 | 91.2 | 83.2 | 102 | 101 | 101 | 96.6 | 102 | 101 | 107 | 103 | 106 | 97.2 | 102
Oc1ccc(-c2c(-c3ccccc3)nn3c(C(F)(F)F)cc(C(F)(F)F)nc23)cc1 [PHTPP] | > 10 | > 10 | > 10 | > 10 | > 10 | 0 | 0 | 0 | 0 | 0 | 104 | 95.5 | 83.4 | 103 | 88.7 | 104 | 100 | 99.1 | 102 | 95.9 | 98.5 | 94.6 | 97.4 | 91.3 | 113 | 105 | 109 | 95.8 | 105 | 96.5 | 99.5 | 96.5 | 102 | 99.2 | 100
C[C@]12CC[C@H](O)CC1=CC[C@@H]1[C@@H]2CC[C@]2(C)C(=O)CC[C@@H]12 [PRASTERONE] | > 10 | > 10 | > 10 | > 10 | > 10 | 0 | 0 | 0 | 0 | 0 | 104 | 101 | 94.2 | 92.3 | 92.2 | 96.8 | 99.4 | 91.4 | 100 | 92.6 | 94.9 | 81.2 | 98.3 | 96.6 | 108 | 99.5 | 101 | 98.7 | 98.7 | 95.2 | 97.4 | 102 | 102 | 97.5 | 100
CC(C)NCCCn1c(Sc2cc3c(cc2I)OCO3)nc2c(N)ncnc21 [PU-H71] | 0.186 | 1.02 | 0.634 | 2.27 | 0.686 | 20.8 | 6.2 | 8.5 | 4.9 | 12.9 | 101 | 95.3 | 82.8 | 0.3 | 0.4 | 89.9 | 104 | 106 | 74 | 47.1 | 97.7 | 107 | 100 | 55.3 | 41.1 | 102 | 105 | 105 | 92.8 | 33.2 | 94.4 | 97.5 | 95.6 | 37.8 | 3.8
